Reference: patent US20170143712A1, “Methods of Treating Cancers, Immune and Autoimmune Diseases, and Inflammatory Diseases Based on BTK Occupancy and BTK Resynthesis Rate” (Acerta Pharma B.V., priority 2014, published 2017)

Tests used:
[1] = test system: B cell receptor (BCR); experiment: Ex vivo anti-IgM induced CD86 and CD69 expression on splenocyte B cells after oral dosing of mice; type: in vivo; settings: Mus musculus, single oral 25 mg/kg, 3-24 hours, read-out: CD86 % inhibition over the entire time course
[2] = test system: S6 phosphorylation; experiment: Basal and anti-IgM induced S6 phosphorylation in splenocytes after oral dosing of mice; type: in vivo, mouse; settings: single oral 25 mg/kg; rank order Formula (II)>ibrutinib>Formula (XVII)
Protocol: B cell stimulation through the B cell receptor (BCR) with antibodies (e.g., anti-IgM) results in the activation of BTK and subsequent cellular changes, including the upregulation of various cell surface receptors. Measuring the inhibition of BCR induced protein phosphorylation downstream of Btk, and the inhibition of surface receptor upregulation provides a way to assess the Btk inhibitor activity. In the first study, the BTK target occupancy in splenocytes was measured over time, providing evidence for BTK resynthesis in the tissue compartment of interest.
Mice were sacrificed at 3, 6, 12, 18, and 24 hours after treatment with the BTK inhibitors (FIG. 27A, FIG. 27B, and FIG. 27C). Spleens were harvested and splenocyte preparations were made for flow cytometry analysis of B cell functions. Fresh or cryopreserved splenocytes were cultured with a-IgM to stimulate BCR, and the up-regulation of CD69, an early functional marker of B cell activation, was analyzed by flow cytometry.
A downstream marker of BTK activity, S6 phosphorylation, was also monitored in this study. […] In a second study, the effects of another inhibitor of BTK that covalently inactivates the kinase, Formula (XXI), were compared with Formula (II) to evaluate the return of BCR function and B cell activation, as illustrated in FIG. 29A and FIG. 29B.

[3] = molecular target: T1, BTK (Homo sapiens, UniProt Q06187); experiment: Per cell BTK protein level in CD19+/CD5+ CLL tumor cells (flow cytometry); type: in vivo; settings: 100 mg BID, after 4 weeks of treatment
T1 sequence (Q06187 whole entry): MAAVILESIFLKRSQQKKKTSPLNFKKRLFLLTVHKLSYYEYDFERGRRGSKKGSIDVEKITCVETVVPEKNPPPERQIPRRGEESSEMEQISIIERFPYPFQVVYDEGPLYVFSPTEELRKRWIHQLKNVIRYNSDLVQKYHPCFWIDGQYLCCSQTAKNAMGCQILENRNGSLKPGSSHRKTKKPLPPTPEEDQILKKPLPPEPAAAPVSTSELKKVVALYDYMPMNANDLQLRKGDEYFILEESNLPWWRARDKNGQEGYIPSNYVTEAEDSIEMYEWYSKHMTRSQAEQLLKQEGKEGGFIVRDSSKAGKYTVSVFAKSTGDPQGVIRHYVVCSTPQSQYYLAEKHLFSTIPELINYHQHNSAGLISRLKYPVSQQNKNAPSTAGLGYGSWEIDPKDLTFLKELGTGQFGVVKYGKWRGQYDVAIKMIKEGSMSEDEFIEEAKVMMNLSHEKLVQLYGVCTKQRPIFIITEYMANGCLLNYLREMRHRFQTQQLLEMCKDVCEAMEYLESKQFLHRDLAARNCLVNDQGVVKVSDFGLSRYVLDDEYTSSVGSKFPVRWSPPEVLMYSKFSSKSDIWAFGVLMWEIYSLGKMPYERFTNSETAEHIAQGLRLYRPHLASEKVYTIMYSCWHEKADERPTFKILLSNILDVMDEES
Protocol: Peripheral blood samples were obtained and BTK protein levels were evaluated in CD19+/CD5+ tumor cells by flow cytometry.

[4] = test system: BCR signaling through BTK; experiment: Anti-IgM induced CD86 and CD69 on splenocyte B cells of CIA mice; type: in vivo, mouse; settings: splenocytes 3 hr after last dosing on day 14
Protocol: (§1) FIG. 45 illustrates changes in a functional measure of BCR signalling through the CD86 marker. Mouse splenocytes were isolated from spleens from mice that were part of the mouse CIA study semi-therapeutic protocol, 3 hr after the last dosing on day 14 of the treatment and cryopreserved. After thawing, inhibition of anti-IgM-induced PD markers CD86 and CD69 on mouse splenocyte B cells were measured. Error bars represent the standard deviation for the 3 sets of splenocytes analyzed.
as §1, with “FIG. 46” for “FIG. 45”, “the CD69” for “the CD86”
Inhibition of the BCR signaling through BTK was evaluated by ex vivo stimulation of splenocytes using IgM and evaluation of CD86 and CD69 as functional responses of BCR stimulation.

[5] = molecular target: T1, BTK; experiment: BTK target occupancy in CD5+/CD19+ tumor cells of relapsed/refractory CLL patients; type: in vivo
Protocol: Peripheral blood samples were obtained over time and BTK target occupancy was evaluated using a BTK active-site specific probe in an ELISA assay.

[6] = test system: ID8 ovarian cancer; experiment: ID8 syngeneic orthotropic ovarian cancer murine model; type: in vivo, mouse; settings: 15 mg/kg/BID orally vs vehicle
From the text: The ID8 syngeneic orthotropic ovarian cancer murine model was used to investigate the therapeutic efficacy of the BTK inhibitor of Formula (II) through treatment of the solid tumor microenvironment. Human ovarian cancer models, including the ID8 syngeneic orthotropic ovarian cancer model and other animal models, are described in Fong and Kakar, J. Ovarian Res. 2009, 2, 12; Greenaway, et al., Gynecol. Oncol. 2008, 108, 385-94; Urzua, et al., Tumour Biol. 2005, 26, 236-44; Janat-Amsbury, et al., Anticancer Res. 2006, 26, 3223-28; Janat-Amsbury, et al., Anticancer Res. 2006, 26, 2785-89. Animals were treated with vehicle or Formula (II), 15 mg/kg/BID given orally. The results of the study are shown in FIG. 35A, FIG. 35B, FIG. 36, FIG. 37, FIG. 38A, FIG. 38B, FIG. 39A, and FIG. 39B.

[7] = molecular target: T2, BTK (Canis lupus familiaris, UniProt A0A8I3P3Z9); experiment: BTK target occupancy in peripheral B-cells and lymph node fine needle aspirates of dogs with spontaneous lymphoma; type: in vivo, dog
T2 construct: Purified peripheral B-cells and FNA samples were snap-frozen for measurement of BTK target occupancy; from tissue; host or cells: peripheral blood CD21+ B cells and lymph node fine needle aspirates of companion dogs with spontaneous lymphoma, dosed in vivo
T2 sequence (A0A8I3P3Z9 1-664): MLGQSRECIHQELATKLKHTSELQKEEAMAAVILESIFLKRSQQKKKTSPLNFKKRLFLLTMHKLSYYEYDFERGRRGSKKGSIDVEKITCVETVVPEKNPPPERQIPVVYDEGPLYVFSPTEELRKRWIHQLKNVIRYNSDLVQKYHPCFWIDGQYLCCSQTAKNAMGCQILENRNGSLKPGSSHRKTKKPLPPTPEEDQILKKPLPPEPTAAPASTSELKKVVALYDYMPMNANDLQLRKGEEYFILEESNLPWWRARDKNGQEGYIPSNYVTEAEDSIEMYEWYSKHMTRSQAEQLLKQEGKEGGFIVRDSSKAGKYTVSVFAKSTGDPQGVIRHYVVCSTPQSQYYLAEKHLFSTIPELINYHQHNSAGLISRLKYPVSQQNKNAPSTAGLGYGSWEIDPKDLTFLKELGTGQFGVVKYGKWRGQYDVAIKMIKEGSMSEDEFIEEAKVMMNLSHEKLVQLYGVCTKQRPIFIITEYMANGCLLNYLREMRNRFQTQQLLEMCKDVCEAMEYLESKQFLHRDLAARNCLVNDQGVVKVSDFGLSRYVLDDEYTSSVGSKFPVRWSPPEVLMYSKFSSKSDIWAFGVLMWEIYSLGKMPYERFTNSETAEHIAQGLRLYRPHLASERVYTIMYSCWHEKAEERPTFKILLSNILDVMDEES
Protocol: Dogs were administered Formula (II) orally once daily and evaluations occurred every 7 days for the first 4 weeks of the study, then every 14 days thereafter. PBMCs and lymph node fine needle aspirates (lymphoma patients only) were obtained for PD analysis on day 0 at time 0 hr and 3 hr, and again at pre-dose (Cmin) on day 7 of drug administration. In each cohort, PK analysis was performed in 2 dogs on day 14 of the study consisting of blood sampling at 0, 0.5, 1, 2, 3, 4, 6, 8, 12, and 24 hr following drug administration.
Peripheral blood mononuclear cells (PBMCs) were isolated from blood and the CD21+ B-cells were enriched by positive magnetic selection. For fine needle aspiration (FNA) samples, erythrocytes were lysed with ammonium chloride lysis buffer. Purified peripheral B-cells and FNA samples were snap-frozen for measurement of BTK target occupancy. BTK target occupancy was measured using an ELISA with anti-BTK as a capture antibody and a biotinylated active site probe for BTK, followed by streptavidin-HRP as a detection reagent. The ex vivo incubation with Formula (II) provided a baseline signal for each sample. BTK occupancy in the B cell lysates from peripheral B-cells and lymph node FNA preparations was calculated as a percentage of the control after correction for baseline chemoluminescence. All samples were run in quadruplicate.

[8] = 3 hr after administration, all cohorts

CC#CC(=O)N1CCC[C@H]1c1nc(-c2ccc(C(=O)Nc3ccccn3)cc2)c2c(N)nccn12 [Formula (II), (S)-4-(8-amino-3-(1-(but-2-ynoyl)pyrrolidin-2-yl)imidazo[1,5-a]pyrazin-1-yl)-N-(pyridin-2-yl)benzamide]
inhibition at 25 mg/kg [1]: 67.9% | basal state and anti-IgM induced S6 phosphorylation [2]: inhibited both basal state and anti-IgM induced S6 phosphorylation | decrease in BTK protein expression per cell (median, of pre-dose values) [3]: 26% | BCR-mediated signaling (anti-IgM induced CD86 and CD69) [4]: dose-responsive decreases in BCR-mediated signaling | percentage BTK occupancy ([5]; 100 mg BID compared with any QD dosing schedule): higher percentage BTK occupancy | resynthesis of BTK in CLL tumor cells ([5]; 100 mg QD compared with 100 mg BID): more rapid than after 100 mg BID dosing | BTK occupancy in peripheral blood compartment ([5]; 3-4 hours post dose, all treated subjects): full BTK occupancy | BTK target occupancy in circulating tumor cells throughout the dosing interval ([5]; total daily doses above 200 mg, once-daily or twice-daily): > 90% | CD8+ T cells [6]: increase | ID8 ovarian cancer growth [6]: impairs ID8 ovarian cancer growth | immunosuppressive B cells in tumor-bearing mice [6]: significant reduction | immunosuppressive tumor associated Tregs [6]: significant reduction | immunosuppressive tumor-associated lymphocytes [6]: significant reduction | BTK occupancy in lymph node FNAs [7, 8]: > 90% | BTK occupancy in peripheral B-cells [7, 8]: ≥ 90% | BTK occupancy in peripheral blood sample ([7]; day 7 pre-dose, steady state (24 hr QD or 12 hr BID after dose)): Full BTK occupancy | BTK occupancy in tumor bearing lymph nodes ([7]; pre-dose Day 7): 82-88%
